Data set [1] has as its system malignant cells of hematopoietic origin including AML. Conditions: cited from earlier work.
Data set [2] concerns blast cells in peripheral blood (PB) of AML patients. Kind of data set: Phase 1/2 study: mobilization of blast cells to peripheral blood after BL-8040 in relapsed or refractory AML patients. Format: in vivo, human. On the procedure:
In an open-label, single arm, phase 1/2 study, patients diagnosed with AML with relapsed or refractory disease received a once daily subcutaneous (SC) dose of BL-8040 as monotherapy on days 1-2 followed by the same dose of BL-8040 plus Ara-C (1.5 g/m2 for patients ≥60; 3 g/m2 for patients <60) on days 3-7. Six dose levels of BL-8040 (0.5-2.0 mg/kg) were tested in the dose escalation phase with 1.5 mg/kg selected for the expansion phase. Extensive pharmacodynamics (PD) parameters such as the extent of mobilization were assessed during the study. Clinical response to treatment was determined by BM biopsy on day 30.
Measuring Blast-Cell Density in Peripheral Blood (PB) and Bone Marrow (BM)
Bone marrow blast-cell counts were performed using procedures essentially as described by Lee et al. (Int. Jnl. Lab. Hem. 30: 349-364, 2008).
Peripheral blast-cell counts were performed using procedures essentially as described by O'Connor, B. H., A Color Atlas and Instructions Manual of Peripheral Cell Morphology, Lippincot Williams, 1984.
Clinical responses to […] treatment were determined according to the standards of the international working group for AML (Cheson et al., J. Clin. Oncol. 21: 4642-4649, 2003; Döhner et al., Blood 115: 453-474, 2010; and de Greef et al., British Journal of Hematology 128: 184-91, 2005), which are summarized in Table 1 below.

Data set [3] relates to human AML xenografts. The note with it: subcutaneous injections; cited from earlier work.
For data set [4], the system named is HIV-1 (X4-HIV-1). Conditions: through specific binding to CXCR4; cited from earlier work.

Here are results for two substances from patent publication US10993985B2, “Methods of treating acute myeloid leukemia” (BioLineRx Ltd., priority 2016, dated 2021).

Positions of bridges follow the written chain, without caps; N, C: chain ends. Non-standard residues stand in square brackets, D forms with d. 2Nal = N[C@@H](Cc1ccc2ccccc2c1)C(=O)O; Cit = NC(=O)NCCC[C@H](N)C(=O)O

Turning to “4F-benzoyl-Arg-Arg-Nal-Cys-Tyr-Cit-Lys-DLys-Pro-Tyr-Arg-Cit-Cys-Arg-NH2 [BL-8040]”, the “cytotoxicity toward malignant cells of hematopoietic origin including AML” value in data set [1] is given as “CXCR4-dependent preferential cytotoxicity”. In addition, the “ratio of PB blast cell density after treatment to initial density prior to treatment” value in data set [2] (day 2 following treatment with BL-8040, non-responsive patients (SD and PD)) was “no increase was observed”; in data set [2] (day 2 following treatment with BL-8040, responsive patients, CR, prior to cytarabine), 2.1 fold; in data set [2] (day 2 following treatment with BL-8040, responsive patients, CRi, prior to cytarabine) it was 4.0 fold; in data set [2] (day 3, 8 hr following day 3 injection (after initiation of cytarabine), non-responsive patients (SD and PD)) it was “no significant increase was observed”; in data set [2] (day 3, 8 hr following day 3 injection (after initiation of cytarabine), responsive patients, CR) it was 7.0 fold; in data set [2] (day 3, 8 hr following day 3 injection (after initiation of cytarabine), responsive patients, CRi), 4.2 fold. Moreover, the “ratio of PB blast cell density after treatment to initial density prior to treatment” value in data set [2] (day 3 following initial treatment with BL-8040, non-responsive patients (SD and PD)) is on record as “no significant increase was observed”; in data set [2] (day 3 following initial treatment with BL-8040, responsive patients, CR, prior to cytarabine), 2.1 fold; in data set [2] (day 3 following initial treatment with BL-8040, responsive patients, CRi, prior to cytarabine) it was 2.9 fold. The “increase of PB blast-cell density versus baseline” value is on record as “did not increase” in data set [2] (non-responsive patients, after 2 or 3 days following first administration of BL-8040); 3.7 fold in data set [2] (responsive patients (CR, CRi or CRp), after 2 days following first administration of BL-8040); 3.8 fold in data set [2] (responsive patients (CR, CRi or CRp), after 3 days following first administration of BL-8040). The “growth of human AML xenografts” value in data set [3] is reported as “significantly reduced”.
As to “H-Arg-Arg-Nal-Cys-Tyr-Arg-Lys-DLys-Pro-Tyr-Arg-Cit-Cys-Arg-OH (H-RR[2Nal]CYRK[dK]PYR[Cit]CR-OH; disulfide 4-13) [Analog T-140]”, in data set [4], the “HIV-1 (X4-HIV-1) entry to T cells” value was “suppress”.
